According to patent publication US6670355B2, “Method of treating cardiovascular disease” (Wyeth, priority 2000, dated 2003):
Several values for one entry are separate records, joined by “and”; a condition that tells them apart may be missing. Equal entries are not always repeated.

System: ApoE knockout (EKO) mice
Assay: standard pharmacological test procedure for atherosclerosis in ApoE knockout (EKO) mice: plasma lipids and aortic arch lesions
Type: in vivo
Details: for Aortic Atherosclerosis (% lesion involvement as assessed by lpipd staining): aortic arch, Oil Red O; for Aortic Atherosclerosis (% lesion involvement as assessed by lpipd staining) / HDL-C / LDL-C / Total Cholesterol / Triglycerides / VLDL-C: Western Diet, mean ± S.E.; for HDL-C / LDL-C / Total Cholesterol / Triglycerides / VLDL-C: plasma
From the text: The ability of the rapamycins of this invention to treat or inhibit cardiovascular disease or peripheral vascular disease was confirmed in a standard pharmacological test procedure using ApoE knockout (EKO) mice, which are a well accepted animal model of human atherosclerosis. In this test procedure, rapamycin was used a representative example of a rapamycin of this invention. The procedure used, and results obtained are briefly summarized below.
Male EKO mice, 4-6 weeks of age, were housed in shoe-box cages and were allowed ad lib food and water. The animals were randomized by weight into 5 groups (N=12-15 mice per group) and were fed Purina Rodent Chow for the first week of the study. Also during this period as well as the remaining 12 weeks of the study, the animals were dosed every 2 days with 0, 1, 2, 4 or 8 mg/kg rapamycin s.c. using 2% Tween-80, 1% carboxymethyl cellulose as the vehicle and Control. The animal diet was switched to a casein-based Western Diet for week 2 to week 13 of the study. At the end of the study period, the animals were euthanized, plasma samples obtained, and the hearts perfused first with saline, then with 10% formalin. Total cholesterol and triglycerides were determined using enzymatic methods with commercially-available kits from Boehringer Mannheim and Wako Biochemicals, respectively, and the Boehringer Mannheim Hitachii 911 Analyzer (Boehringer Mannheim Diagnostic Laboratory Systems, Indianapolis, Ind.). Separation and quantification of plasma lipoproteins were performed using FPLC size fractionation. Briefly, […] of serum was filtered and injected into two Superose 6 columns (Amersham Pharmacia Biotech, UK, Ltd) connected in series and eluted at a constant flow rate with 1 mM sodium EDTA and 0.15 M NaCl. Areas of each curve representing VLDL, LDL and HDL were integrated using Millennium software (Waters Technologies Corporation), and each lipoprotein fraction was quantified by multiplying the Total Cholesterol value by the relative percent area of each respective peak. The aortas were carefully isolated and remained in the formalin fixative for 48-72 hours before handling. Atherosclerotic lesions were identified by Oil Red O staining, a well accepted procedure for identifying accumulation of neutral lipids such as cholesterols and triglycerides. The vessels were destained, and then imaged using a Nikon SMU800 microscope fitted with a Sony 3CCD video camera system in concert with IMAQ Configuration Utility (National Instrument) as the image capturing software. The lesions were quantified along the aortic arch using a custom threshold utility software package designed by Robert Coll (Coleman Technologies). Automated lesion assessment was performed on the vessels using the threshold function of the program, specifically on the region contained within the aortic arch from the proximal edge of the Right Common Carotid artery to the distal edge of the Left Subclavian artery. Aortic atherosclerosis data were expressed as percent lesion (lipid) involvement strictly within this defined luminal area. Statistical significance between the Control and treated groups was determined using the Dunnett's Test at 1% significance level (p<0.01).

Compound: CO[C@H]1C[C@@H]2CC[C@@H](C)[C@@](O)(O2)C(=O)C(=O)N2CCCC[C@H]2C(=O)O[C@H]([C@H](C)C[C@@H]2CC[C@@H](O)[C@H](OC)C2)CC(=O)[C@H](C)/C=C(\C)[C@@H](O)[C@@H](OC)C(=O)[C@H](C)C[C@H](C)/C=C/C=C/C=C/1C [rapamycin]
- area of aorta containing fat (1, 2, 4, or 8-mg/kg qod for 12 weeks): 12-16%
- Aortic Atherosclerosis (% lesion involvement as assessed by lpipd staining) (1 mg/kg s.c. every 2 days, 1 mg/kg): 21.6% and 21.6 ± 3.1 %
- Aortic Atherosclerosis (% lesion involvement as assessed by lpipd staining) (2 mg/kg s.c. every 2 days, 2 mg/kg): 14.9 ± 3.1 %
- Aortic Atherosclerosis (% lesion involvement as assessed by lpipd staining) (4 mg/kg s.c. every 2 days, 4 mg/kg): 16% and 16.4 ± 2.8 %
- Aortic Atherosclerosis (% lesion involvement as assessed by lpipd staining) (8 mg/kg s.c. every 2 days, 8 mg/kg): 12% and 12.03 ± 2.3 %
- effect on VLDL-cholesterol (compared with control EKO mice): not significantly affecting
- effect on circulating plasma HDL-cholesterol (compared with control EKO mice): significantly (p<0.01) increased
- effect on circulating plasma LDL-cholesterol (compared with control EKO mice): significantly (p<0.01) increased
- effect on total cholesterol (compared with control EKO mice): not significantly affecting
- effect on triglycerides (compared with control EKO mice): not significantly affecting
- HDL-C (1 mg/kg s.c. every 2 days): 23 ± 6 mg/dL
- LDL-C (1 mg/kg s.c. every 2 days): 508 ± 18 mg/dL
- Total Cholesterol (1 mg/kg s.c. every 2 days): 1434 ± 35 mg/dL
- Triglycerides (1 mg/kg s.c. every 2 days): 132 ± 16 mg/dL
- VLDL-C (1 mg/kg s.c. every 2 days): 903 ± 34 mg/dL
- HDL-C (2 mg/kg s.c. every 2 days): 31 ± 5 mg/dL
- LDL-C (2 mg/kg s.c. every 2 days): 517 ± 18 mg/dL
- Total Cholesterol (2 mg/kg s.c. every 2 days): 1311 ± 80 mg/dL
- Triglycerides (2 mg/kg s.c. every 2 days): 143 ± 20 mg/dL
- VLDL-C (2 mg/kg s.c. every 2 days): 763 ± 64 mg/dL
- HDL-C (4 mg/kg s.c. every 2 days): 38 ± 5 mg/dL
- LDL-C (4 mg/kg s.c. every 2 days): 494 ± 10 mg/dL
- Total Cholesterol (4 mg/kg s.c. every 2 days): 1281 ± 58 mg/dL
- Triglycerides (4 mg/kg s.c. every 2 days): 136 ± 12 mg/dL
- VLDL-C (4 mg/kg s.c. every 2 days): 749 ± 58 mg/dL
- HDL-C (8 mg/kg s.c. every 2 days): 49 ± 3 mg/dL
- LDL-C (8 mg/kg s.c. every 2 days): 475 ± 21 mg/dL
- Total Cholesterol (8 mg/kg s.c. every 2 days): 1167 ± 75 mg/dL
- Triglycerides (8 mg/kg s.c. every 2 days): 134 ± 9 mg/dL
- VLDL-C (8 mg/kg s.c. every 2 days): 644 ± 58 mg/dL
- circulating total cholesterol (rapamycin treated animals, 1, 2, 4, or 8-mg/kg qod for 12 weeks): 1300 to 1500 mg/dL
- reduction in aortic atherosclerosis (rapamycin treated vs Control EKO mice): three-fold reduction
